The record followed here is US11098029B2, “5-alkyl pyrrolidine orexin receptor agonists” (Merck Sharp & Dohme Corp., priority 2019, dated 2021).

Each structure is given as a SMILES string. pIC50: −log10 of the molar value.

The target in the first experiment is human OX2R (Homo sapiens (Human), UniProt O43614). The experiment in a line: IPOne (IP-One, Cisbio) orexin receptor agonist assay in CHO cells expressing human OX2R.
Chain of human OX2R (O43614 whole entry): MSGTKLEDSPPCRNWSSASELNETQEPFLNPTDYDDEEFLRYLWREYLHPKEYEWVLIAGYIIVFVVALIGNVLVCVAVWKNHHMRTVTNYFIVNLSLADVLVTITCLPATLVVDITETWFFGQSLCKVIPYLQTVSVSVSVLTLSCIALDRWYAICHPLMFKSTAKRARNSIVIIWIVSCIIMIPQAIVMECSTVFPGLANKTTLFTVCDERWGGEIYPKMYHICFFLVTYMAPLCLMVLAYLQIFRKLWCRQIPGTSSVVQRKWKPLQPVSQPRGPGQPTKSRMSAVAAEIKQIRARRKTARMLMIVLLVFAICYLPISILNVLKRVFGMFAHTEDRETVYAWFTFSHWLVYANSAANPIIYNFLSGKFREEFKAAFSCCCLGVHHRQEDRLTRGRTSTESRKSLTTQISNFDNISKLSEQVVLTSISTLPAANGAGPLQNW
Conditions: not given
In general, pIC50 refers to the IC50 on a negative log10 scale, so that one unit is a factor of ten. Compound `COC(=O)N1[C@@H](CO[C@H]2CC[C@@H](c3ccccc3)CC2)[C@@H](NS(C)(=O)=O)CC12CC2` (relative stereo) [Example 41, methyl (CIS)-6-(methylsulfonamido)-5-((((CIS)-4-phenylcyclohexyl)oxy)methyl)-4-azaspiro[2.4]heptane-4-carboxylate] gave a pIC50 of 6.65.
On the same count and under the same terms, to `CCC1(CC)C[C@@H](NS(C)(=O)=O)[C@@H](CO[C@H]2CC[C@@H](c3ccccc3)CC2)N1C(=O)OC` (relative stereo) [Example 42, methyl (CIS)-2,2-diethyl-4-(methylsulfonamido)-5-((((CIS)-4-phenylcyclohexyl)oxy)methyl)-pyrrolidine-1-carboxylate] belongs 6.50; to `CCNC(=O)N1[C@H](C)C[C@H](NS(C)(=O)=O)[C@@H]1COC1CCC(C(C)C)CC1` (stereo partly drawn) [Example 1, (2R,3S,5R)—N-ethyl-2-(((4-isopropylcyclohexyl)oxy)methyl)-5-methyl-3-(methylsulfonamido)-pyrrolidine-1-carboxamide], 7.82.
With `CCOC(=O)N1[C@H](C)C[C@H](NS(C)(=O)=O)[C@@H]1COC1CCC(C(C)C)CC1` (stereo partly drawn) [Example 7, ethyl (2R,3S,5R)-2-(((4-isopropylcyclohexyl)oxy)meth-yl)-5-methyl-3-(methylsulfonamido)pyrrolidine-1-carboxylate], the pIC50 was 7.34.

Staying with this experiment, now noted: CHO, hOX2R_IP; percentage of mean max effect of a reference compound at 1 uM (100% activity vs Orexin A).
As usually defined, the Emax is the greatest response seen or fitted, relative to the assay's reference. Take `CC[C@@H]1C[C@H](NS(C)(=O)=O)[C@H](CO[C@H]2CC[C@@H](c3ccccc3)CC2)N1C(=O)OC` (racemic) [Example 43, methyl (2R,3S,5R)-5-ethyl-3-(methylsulfonamido)-2-((((CIS)-4-phenylcyclohexyl)oxy)methyl)-pyrrolidine-1-carboxylate]: the Emax was determined as 103%.
The same measure, in the same setting: to `COC(=O)N1[C@@H](CO[C@H]2CC[C@@H](c3ccccc3)CC2)[C@@H](NS(C)(=O)=O)CC12CC2` (relative stereo) [Example 41, methyl (CIS)-6-(methylsulfonamido)-5-((((CIS)-4-phenylcyclohexyl)oxy)methyl)-4-azaspiro[2.4]heptane-4-carboxylate] belongs 99%; to `CCC1(CC)C[C@@H](NS(C)(=O)=O)[C@@H](CO[C@H]2CC[C@@H](c3ccccc3)CC2)N1C(=O)OC` (relative stereo) [Example 42, methyl (CIS)-2,2-diethyl-4-(methylsulfonamido)-5-((((CIS)-4-phenylcyclohexyl)oxy)methyl)-pyrrolidine-1-carboxylate], 100%; to `CCNC(=O)N1[C@H](C)C[C@H](NS(C)(=O)=O)[C@@H]1COC1CCC(C(C)C)CC1` (stereo partly drawn) [Example 1, (2R,3S,5R)—N-ethyl-2-(((4-isopropylcyclohexyl)oxy)methyl)-5-methyl-3-(methylsulfonamido)-pyrrolidine-1-carboxamide], 101%.
Regarding `CCNC(=O)N1[C@H](C)C[C@H](NS(C)(=O)=O)[C@@H]1COC1CCC(C(F)(F)F)CC1` (stereo partly drawn) [Example 2, (2R,3S,5R)—N-ethyl-5-methyl-3-(methylsulfonamido)-2-(((4-(trifluoromethyl)-cyclohexyl)oxy)methyl)pyrrolidine-1-carboxamide], the Emax was determined as 100%.
With `COC(=O)N1[C@H](C)C[C@H](NS(C)(=O)=O)[C@@H]1COC1CCC(C(C)C)CC1` (stereo partly drawn) [Example 3, methyl (2R,3S,5R)-2-(((4-isopropylcyclohexyl)oxy)methyl)-5-methyl-3-(methylsulfonamido)pyrrolidine-1-carboxylate], the Emax was 98%.
Compound `CC(C)OC(=O)N1[C@H](C)C[C@H](NS(C)(=O)=O)[C@@H]1COC1CCC(C(C)C)CC1` (stereo partly drawn) [Example 5, isopropyl (2R,3S,5R)-2-(((4-isopropylcyclohexyl)oxy)meth-yl)-5-methyl-3-(methylsulfonamido)pyrrolidine-1-carboxylate] had an Emax of 101%.
The same measure, in the same setting: to `CCOC(=O)N1[C@H](C)C[C@H](NS(C)(=O)=O)[C@@H]1COC1CCC(C(C)C)CC1` (stereo partly drawn) [Example 7, ethyl (2R,3S,5R)-2-(((4-isopropylcyclohexyl)oxy)meth-yl)-5-methyl-3-(methylsulfonamido)pyrrolidine-1-carboxylate] belongs 100%; to `CCOC(=O)N1[C@H](C)C[C@H](NS(=O)(=O)N(C)C)[C@@H]1COC1CCC(C(C)C)CC1` (stereo partly drawn) [Example 8, ethyl (2R,3S,5R)-3-((N,N-dimethylsulfamoyl)amino)-2-(((4-isopropylcyclohexyl)oxy)meth-yl)-5-methylpyrrolidine-1-carboxylate], 101%; to `CC(C)C1CCC(OC[C@H]2[C@@H](NS(C)(=O)=O)C[C@@H](C)N2C(=O)OCC(F)F)CC1` (stereo partly drawn) [Example 9, 2,2-difluoroethyl (2R,3S,5R)-2-(((4-isopropylcyclohexyl)oxy)meth-yl)-5-methyl-3-(methylsulfonamido)pyrrolidine-1-carboxylate], 101%.
Same read-out and setting: to `CC(C)C1CCC(OC[C@H]2[C@@H](NS(C)(=O)=O)C[C@@H](C)N2C(=O)OCCF)CC1` (stereo partly drawn) [Example 10, 2-fluoroethyl (2R,3S,5R)-2-(((4-isopropylcyclohexyl)oxy)meth-yl)-5-methyl-3-(methylsulfonamido)pyrrolidine-1-carboxylate] belongs 99%; to `COC(=O)N1[C@H](C)C[C@H](NS(=O)(=O)N(C)C)[C@@H]1COC1CCC(C(F)(F)F)CC1` (stereo partly drawn) [Example 11, methyl (2R,3S,5R)-3-((N,N-dimethylsulfamoyl)amino)-5-methyl-2-(((4-(trifluoromethyl)cyclohexyl)oxy)methyl)pyrrolidine-1-carboxylate], 99%.
The same measure, in the same setting: to `COC(=O)N1[C@H](C)C[C@H](NS(C)(=O)=O)[C@@H]1COC1CCC(CC(F)(F)F)CC1` (stereo partly drawn) [Example 12, methyl (2R,3S,5R)-5-methyl-3-(methylsulfonamido)-2-(((4-(2,2,2-trifluoroethyl)cyclohexyl)oxy)methyl)pyrrolidine-1-carboxylate] belongs 99%.
`CC(C)C1CCC(OC[C@H]2[C@@H](NS(=O)(=O)N(C)C)C[C@@H](C)N2C(=O)OCC(F)F)CC1` (stereo partly drawn) [Example 14, 2,2-difluoroethyl (2R,3S,5R)-3-((N,N-dimethylsulfamoyl)amino)-2-(((4-isopropylcyclohexyl)oxy)meth-yl)-5-methylpyrrolidine-1-carboxylate] returned an Emax of 100%.

Staying with this experiment, now noted: hOX2R_IP; percentage of mean max effect of a reference compound at 1 uM (100% activity vs Orexin A).
As to `C=C[C@@H]1C[C@H](NS(C)(=O)=O)[C@H](CO[C@H]2CC[C@@H](c3ccccc3)CC2)N1C(=O)OC` (relative stereo) [Example 48, methyl (CIS)-3-(methylsulfonamido)-2-((((CIS)-4-phenylcyclohexyl)oxy)methyl)-5-vinylpyrrolidine-1-carboxylate], the “Emax (%)” value was found to be 102%.
The same measure, in the same setting: to `COC(=O)N1[C@H](C)C[C@H](NS(C)(=O)=O)[C@@H]1CO[C@H]1CC[C@@H](C(C)C)CC1` [Example 4, methyl (2R,3S,5R)-2-((((1s,4S)-4-isopropylcyclohexyl)oxy)methyl)-5-methyl-3-(methylsulfonamido)pyrrolidine-1-carboxylate] belongs 102%; to `CNS(=O)(=O)N[C@H]1C[C@@H](C)N(C(=O)OC(C)C)[C@H]1COC1CCC(C(C)C)CC1` (stereo partly drawn) [Example 6, isopropyl (2R,3S,5R)-2-(((4-isopropylcyclohexyl)oxy)meth-yl)-5-methyl-3-((N-methylsulfamoyl)amino) pyrrolidine-1-carboxylate], 100%.
The same measure, in the same setting: to `CNS(=O)(=O)N[C@H]1C[C@@H](C)N(C(=O)OCC(F)F)[C@H]1COC1CCC(C(C)C)CC1` (stereo partly drawn) [Example 13, 2,2-difluoroethyl (2R,3S,5R)-2-(((4-isopropylcyclohexyl)oxy)meth-yl)-5-methyl-3-((N-methylsulfamoyl)amino)pyrro-lidine-1-carboxylate] belongs 101%.
Consider `COC(=O)N1[C@H](C)C[C@H](NS(C)(=O)=O)[C@@H]1CO[C@H]1CC[C@@H](c2ccccc2)CC1` [Example 15, methyl (2R,3S,5R)-5-methyl-3-(methylsulfonamido)-2-((((1s,4S)-4-phenylcyclohexyl)oxy)-methyl)pyrrolidine-1-carboxylate], for which the “Emax (%)” value came out at 101%.
Still for that read-out and setting: to `CNS(=O)(=O)N[C@H]1C[C@@H](C)N(C(=O)OCC(F)F)[C@H]1CO[C@H]1CC[C@@H](c2ccccc2)CC1` [Example 16, 2,2-difluoroethyl (2R,3S,5R)-5-methyl-3-((N-methylsulfamoyl)amino)-2-((((1s,4S)-4-phenylcyclohexyl)oxy)methyl)pyrrolidine-1-carboxylate] belongs 101%.
